# From patent publication US20180334447A1, “2,3,4,5-TETRAHYDROPYRIDIN-6-AMINE DERIVATIVES” (JANSSEN PHARMACEUTICA NV, priority 2015, published 2018)
# Key:
# [1] = biological target: T1, recombinant BACE1 protein (Homo sapiens, UniProt P56817); assay: BACE1 biochemical FRET based assay - Method 1; details: BACE1, 120 minutes at room temperature, pH 5.0; read-out: Biochemical FRET based assay - Method 1 pIC50 (converted)
# T1 construct: recombinant BACE1 protein in a final concentration of 1 μg/ml
# T1 sequence (P56817 46-501): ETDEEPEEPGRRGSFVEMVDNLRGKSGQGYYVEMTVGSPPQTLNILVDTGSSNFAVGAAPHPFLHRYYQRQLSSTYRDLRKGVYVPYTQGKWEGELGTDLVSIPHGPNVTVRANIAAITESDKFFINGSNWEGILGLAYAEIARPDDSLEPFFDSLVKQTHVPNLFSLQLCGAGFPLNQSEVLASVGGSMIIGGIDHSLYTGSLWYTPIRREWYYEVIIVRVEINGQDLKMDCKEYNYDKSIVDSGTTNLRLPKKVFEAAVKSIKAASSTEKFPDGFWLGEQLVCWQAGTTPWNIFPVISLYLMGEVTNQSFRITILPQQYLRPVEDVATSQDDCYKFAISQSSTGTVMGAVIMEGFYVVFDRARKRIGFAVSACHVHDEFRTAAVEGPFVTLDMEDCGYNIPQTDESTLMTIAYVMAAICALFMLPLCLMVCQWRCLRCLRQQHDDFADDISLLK
# Text: (§1) This assay is a Fluorescence Resonance Energy Transfer Assay (FRET) based assay. The substrate for this assay is an APP derived 13 amino acids peptide that contains the ‘Swedish’ Lys-Met/Asn-Leu mutation of the amyloid precursor protein (APP) beta-secretase cleavage site. This substrate also contains two fluorophores: (7-methoxycoumarin-4-yl) acetic acid (Mca) is a fluorescent donor with excitation wavelength at 320 nm and emission at 405 nm and 2,4-Dinitrophenyl (Dnp) is a proprietary quencher acceptor. […] Upon cleavage by BACE1, the fluorophore Mca is separated from the quenching group Dnp, restoring the full fluorescence yield of the donor. The increase in fluorescence is linearly related to the rate of proteolysis.
# Briefly in a 384-well format recombinant BACE1 protein in a final concentration of 1 μg/ml is incubated for 120 minutes at room temperature with 10 μm substrate in incubation buffer (40 mM Citrate buffer pH 5.0, 0.04% PEG, 4% DMSO) in the absence or presence of compound. Next the amount of proteolysis is directly measured by fluorescence measurement at T=0 and T=120 (excitation at 320 nm and emission at 405 nm). Results are expressed in RFU (Relative Fluorescence Units), as difference between T120 and T0.
# (§2) A best-fit curve is fitted by a minimum sum of squares method to the plot of % Controlmin versus compound concentration. From this an IC50 value (inhibitory concentration causing 50% inhibition of activity) can be obtained.
# [2] = tested on: Abeta 1-42 produced and secreted into the medium of human neuroblastoma SKNBE2 cells; assay: Cellular αLisa assay in SKNBE2 cells, Abeta 42; format: cell-based; details: SKNBE2 cells expressing hAPP695, incubated for 18 hours; for IC50: Homo sapiens, SKNBE2, 18 h, read-out: Cellular αLisa assay in SKNBE2 cells Abeta 42 pIC50 (converted)
# Protocol: In two αLisa assays the levels of Abeta 1-42 produced and secreted into the medium of human neuroblastoma SKNBE2 cells are quantified. The assay is based on the human neuroblastoma SKNBE2 expressing the wild type Amyloid Precursor Protein (hAPP695). The compounds are diluted and added to these cells, incubated for 18 hours and then measurements of Abeta 1-42 are taken. Abeta 1-42 are measured by sandwich αLisa. αLisa is a sandwich assay using biotinylated antibody AbN/25 attached to streptavidin coated beads and antibody cAb42/26 conjugated acceptor beads for the detection of Abeta 1-42 respectively. In the presence of Abeta 1-42, the beads come into close proximity. The excitation of the donor beads provokes the release of singlet oxygen molecules that trigger a cascade of energy transfer in the acceptor beads, resulting in light emission. Light emission is measured after 1 hour incubation (excitation at […] and emission at 615 nm).
# as §2
# [3] = biological target: T2, recombinant BACE2 protein (Homo sapiens, UniProt Q9Y5Z0); assay: BACE2 biochemical FRET based assay; details: BACE2, 450 minutes at room temperature, pH 5.0; read-out: Biochemical FRET based assay pIC50 (converted)
# T2 construct: recombinant BACE2 protein in a final concentration of 0.4 μg/ml
# T2 sequence (Q9Y5Z0 63-518): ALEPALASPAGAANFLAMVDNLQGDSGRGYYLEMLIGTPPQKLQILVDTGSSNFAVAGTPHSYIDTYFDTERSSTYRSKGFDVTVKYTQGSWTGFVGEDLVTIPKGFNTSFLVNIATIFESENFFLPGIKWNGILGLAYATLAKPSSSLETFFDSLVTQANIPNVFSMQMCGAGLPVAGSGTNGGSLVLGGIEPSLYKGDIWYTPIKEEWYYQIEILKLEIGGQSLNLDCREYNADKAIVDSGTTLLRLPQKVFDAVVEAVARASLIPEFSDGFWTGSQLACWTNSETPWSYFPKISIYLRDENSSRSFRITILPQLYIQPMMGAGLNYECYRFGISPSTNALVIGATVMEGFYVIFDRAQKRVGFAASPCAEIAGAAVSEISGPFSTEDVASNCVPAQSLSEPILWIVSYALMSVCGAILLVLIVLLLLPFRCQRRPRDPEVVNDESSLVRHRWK
# Text: as §1, with “assay” for “assay is an APP derived 13 amino acids peptide that”, “the beta-secretase,” for “BACE1,”
# Briefly in a 384-well format recombinant BACE2 protein in a final concentration of 0.4 μg/ml is incubated for 450 minutes at room temperature with 10 μM substrate in incubation buffer (50 mM Citrate buffer pH 5.0, 0.05% PEG, no DMSO) in the absence or presence of compound. Next the amount of proteolysis is directly measured by fluorescence measurement at T=0 and T=450 (excitation at 320 nm and emission at 405 nm). Results are expressed in RFU (Relative Fluorescence Units), as difference between T450 and T0.
# as §2
SMILES,IC50 [1] [nM],Cellular αLisa assay in SKNBE2 cells Abeta 42 pIC50 [2],IC50 [3] [nM],IC50 [2] [nM]
"COc1cnc(C(=O)Nc2ccc(F)c(C3(C)CCC(C)(C#N)C(N)=N3)c2)cn1 (single isomer, unassigned) [Compound 15]",9.77,8.16,66.1,
"COc1cnc(C(=O)Nc2ccc(F)c(C3(C)CCC(C)(C#N)C(N)=N3)c2)cn1 (single isomer, unassigned) [Compound 16]",257,7.35,1350,
COc1cnc(C(=O)Nc2ccc(F)c([C@]3(CF)CC[C@](C)(S(C)(=O)=O)C(N)=N3)c2)cn1 [Compound 1],2630,,> 10000,1350
COc1cnc(C(=O)Nc2ccc(F)c([C@]3(CF)CC[C@](C)(C#N)C(N)=N3)c2)cn1 [Compound 4],851,,5750,692
COc1cnc(C(=O)Nc2ccc(F)c([C@]3(CF)CC[C@@](C)(C#N)C(N)=N3)c2)cn1 [Compound 5],53.7,,417,50.1
COc1cnc(C(=O)Nc2ccc(F)c([C@@]3(C)N=C(N)[C@@](C)(C#N)C[C@H]3F)c2)cn1 [Compound 6],145,,537,240
COc1cnc(C(=O)Nc2ccc(F)c([C@@]3(C)N=C(N)[C@@](C)(C#N)C[C@@H]3F)c2)cn1 [Compound 7],79.4,,562,66.1
COc1cnc(C(=O)Nc2ccc(F)c([C@@]3(C)N=C(N)[C@](C)(C#N)C[C@@H]3F)c2)cn1 [Compound 8],12.9,,70.8,13.2
COc1cnc(C(=O)Nc2ccc(F)c([C@]3(C)CC[C@@](C)(S(C)(=O)=O)C(N)=N3)c2)cn1 [Compound 10],3.89,,21.9,1.12
COc1cnc(C(=O)Nc2ccc(F)c([C@]3(C(F)F)CC[C@](C)(C#N)C(N)=N3)c2)cn1 [Compound 11],138,,891,339
COc1cnc(C(=O)Nc2ccc(F)c([C@@]3(C(F)F)CC[C@@](C)(C#N)C(N)=N3)c2)cn1 [Compound 12],6760,,> 10000,> 8910
COc1cnc(C(=O)Nc2ccc(F)c([C@@]3(C(F)F)CC[C@](C)(C#N)C(N)=N3)c2)cn1 [Compound 13],> 10000,,> 10000,> 8910
COc1cnc(C(=O)Nc2ccc(F)c([C@]3(C(F)F)CC[C@@](C)(C#N)C(N)=N3)c2)cn1 [Compound 14],11.7,,115,49
COc1cnc(C(=O)Nc2ccc(F)c([C@@]3(C)N=C(N)[C@](C)(S(C)(=O)=O)C[C@@H]3F)c2)cn1 [Compound 17],30.9,,93.3,14.5
COc1cnc(C(=O)Nc2ccc(F)c([C@@]3(C)N=C(N)[C@@](C)(S(C)(=O)=O)C[C@@H]3F)c2)cn1 [Compound 18],5750,,> 10000,3550
C[C@]1(S(C)(=O)=O)CC[C@@](CF)(c2cc(NC(=O)c3ccc(F)cn3)ccc2F)N=C1N [Compound 19],380,,302,380
C[C@]1(S(C)(=O)=O)CC(F)(F)[C@@](C)(c2cc(NC(=O)c3cnc(OCF)cn3)ccc2F)N=C1N [Compound 23],1660,,4680,4470
C[C@]1(c2cc(NC(=O)c3cnc(OCF)cn3)ccc2F)N=C(N)[C@](C)(S(C)(=O)=O)CC1(F)F [Compound 24],91.2,,977,468
CC1(S(=O)(=O)C2CC2)CCC(CF)(c2cc(NC(=O)c3ccc(F)cn3)ccc2F)N=C1N (stereo not drawn) [Compound 25],2.4,,2.04,3.72
CCOc1cnc(C(=O)Nc2ccc(F)c(C3(CF)CCC(C)(S(C)(=O)=O)C(N)=N3)c2)cn1 (stereo not drawn) [Compound 37],3.72,,32.4,3.47
